Experimental data reported in patent publication US20250195463A1, “ORGANOMETALLIC COMPLEX, CONTROLLED-RELEASE MULTI-FUNCTIONAL DRUG, PHARMACEUTICAL COMPOSITION, PROCESSES FOR THE PREPARATION THEREOF AND THEIR USE” (FACULDADE DE CIÊNCIAS DA UNIVERSIDADE DE LISBOA, priority 2022, published 2025).

Tests used:
[1] = Stability in organic medium (dimethyl sulfoxide) by UV-Vis spectroscopy; type: physicochemical; conditions: for Relative variation of the maximum absorbance of the π→π* transitions: band 289-300 nm (λmax in column head); for Relative variation of the maximum absorbance of the charge transfer bands: band 357-425 nm (λmax in column head)
Description: (§1) The stability of the complexes 4-11 in organic and aqueous media was evaluated over 24 h by UV-Vis spectroscopy at room temperature, in dark, on a Jasco V-660 spectrometer using quartz cuvettes (1 cm optical path length). The electronic spectra (270-900 nm) were acquired at regular periods of time (0 h, 0.25 h, 0.5 h, 0.75 h, 1 h, 2 h, 3 h, 4 h, 5 h, 6 h, 24 h) for solutions of 100% dimethyl sulfoxide (complexes 4-11) and 5% dimethyl sulfoxide/95% Dulbecco's Modified Eagle Medium (complexes 4, 5 and 8-11) or 10% dimethyl sulfoxide/90% Dulbecco's Modified Eagle Medium (complexes 6 and 7) at concentrations ranging from 7.0×10^-5 M to 3.0×10^-4 M.

[2] = Stability in aqueous medium (dimethyl sulfoxide/Dulbecco's Modified Eagle Medium) by UV-Vis spectroscopy; type: physicochemical; conditions: 5% dimethyl sulfoxide/95% Dulbecco's Modified Eagle Medium; for Relative variation of the maximum absorbance of the π→π* transitions: band 292-296 nm (λmax in column head); for Relative variation of the maximum absorbance of the charge transfer bands: band 358-400 nm (λmax in column head)
Description: as §1

[3] = test system: MDA-MB-231 (FGFR−); assay: MTT cytotoxicity assay; conditions: MDA-MB-231
Description: By way of example, the in vitro cytotoxicity of the conjugate RuPC1, complex 4 and peptide P2 was determined in four human breast cancer cell lines with different levels of expression of the receptor FGFR, namely MDA-MB-231 (FGFR−), MCF-7 (FGFR−), SK-BR-3 (FGFR+), and MDA-MB-134-VI (FGFR+). The cytotoxicity of RuPC1 was also determined in the stated cell lines at controlled pH 6.8 and 7.4. The cytotoxicity of the complexes 5, 8, 9, and the reference complex (2,2′-bipyridyl)(triphenylphosphane)(f-cyclopentadienyl)ruthenium(II) trifluoromethanesulfonate, [RuCp(PPh3)(bipy)][CF3SO3] (TM34) was only determined in the cell line MDA-MB-231. All the cell lines were from the American Type Culture Collection (ATCC) and were cultured in Dulbecco's Modified Eagle Medium+Glutamax-I (Gibco) supplemented with 10% fetal bovine serum (FBS) and 1% antibiotics, excepting the MDA-MB-134-VI for which it was used the double amount of FBS. The cell cultures were kept in an incubator Heraeus at 37° C. under humidified atmosphere at 5% CO2. The cell viability was evaluated resorting to the MTT ([3-(4,5-dimethylthiazol-2-yl)-2,5-diphenyltetrazolium bromide]) colorimetric assay, which is based on the reduction of the tetrazolium salt to purple formazan by mitochondrial dehydrogenases in metabolically active cells. For the assays, the cells were seeded in 96-well plates (2×10^4 to 3×10^4 cells/200 μL) and allowed to adhere overnight. The compounds were first dissolved in dimethyl sulfoxide to obtain 10 mM stock solutions, further used to prepare the working solutions, at 0.1 to 100 μM, by dilution in the cell culture medium. Alternatively, for the assays at controlled pH 6.8 and 7.4, RuPC1 was first dissolved in a solution of 15% dimethyl sulfoxide/85% phosphate buffer (10 mM in water) to obtain 1.5 mM stock solutions further incubated for 48 hours at both pH values prior to be used to prepare the working solutions, at 0.1 to 50 μM, by dilution in the cell culture medium. In both cases, after continuous exposure of the cells to the compounds for 48 h at 37° C., the medium was removed and the cells were incubated with 200 μL of MTT solution (0.5 mg/mL) for 3 h. Then, the solution was discarded and the purple formazan formed by the viable cells was dissolved in 200 μL of dimethyl sulfoxide. The cell viability (%) was determined relative to the control (cells incubated without compounds) by measuring the absorbance at 570 nm on a PowerWave Xs Bio-Tek Instruments plate spectrophotometer. The respective values of the half maximal inhibitory concentration (IC50) were calculated with the software GraphPad Prism. All the compounds were tested in at least two independent experiments, each comprising six replicates per concentration.

SMILES: CCC(=O)C1=C[CH]([Ru-]2([PH](c3ccccc3)(c3ccccc3)c3ccccc3)[n+]3ccccc3-c3cccc[n+]32)C=C1.O=S(=O)([O-])C(F)(F)F (stereo not shown) [compound 8]
- Relative variation of the maximum absorbance of the π→π* transitions ([1]; time 0 h): 0.0%
- Relative variation of the maximum absorbance of the charge transfer bands ([1]; time 0 h): 0.0%
- Relative variation of the maximum absorbance of the π→π* transitions ([1]; time 0.25 h): 0.0%
- Relative variation of the maximum absorbance of the charge transfer bands ([1]; time 0.25 h): 0.0%
- Relative variation of the maximum absorbance of the π→π* transitions ([1]; time 0.5 h): 0.2%
- Relative variation of the maximum absorbance of the charge transfer bands ([1]; time 0.5 h): 0.1%
- Relative variation of the maximum absorbance of the π→π* transitions ([1]; time 0.75 h): 0.0%
- Relative variation of the maximum absorbance of the charge transfer bands ([1]; time 0.75 h): 0.0%
- Relative variation of the maximum absorbance of the π→π* transitions ([1]; time 1 h): 0.1%
- Relative variation of the maximum absorbance of the charge transfer bands ([1]; time 1 h): 0.3%
- Relative variation of the maximum absorbance of the π→π* transitions ([1]; time 2 h): 0.0%
- Relative variation of the maximum absorbance of the charge transfer bands ([1]; time 2 h): 0.2%
- Relative variation of the maximum absorbance of the π→π* transitions ([1]; time 3 h): −0.3%
- Relative variation of the maximum absorbance of the charge transfer bands ([1]; time 3 h): 0.0%
- Relative variation of the maximum absorbance of the π→π* transitions ([1]; time 4 h): −0.1%
- Relative variation of the maximum absorbance of the charge transfer bands ([1]; time 4 h): 0.0%
- Relative variation of the maximum absorbance of the π→π* transitions ([1]; time 5 h): −0.1%
- Relative variation of the maximum absorbance of the charge transfer bands ([1]; time 5 h): −0.3%
- Relative variation of the maximum absorbance of the π→π* transitions ([1]; time 6 h): −0.2%
- Relative variation of the maximum absorbance of the charge transfer bands ([1]; time 6 h): 0.3%
- Relative variation of the maximum absorbance of the π→π* transitions ([1]; time 24 h): −0.2%
- Relative variation of the maximum absorbance of the charge transfer bands ([1]; time 24 h): 0.2%
- Relative variation of the maximum absorbance of the π→π* transitions ([2]; time 0 h): 0.0%
- Relative variation of the maximum absorbance of the charge transfer bands ([2]; time 0 h): 0.0%
- Relative variation of the maximum absorbance of the π→π* transitions ([2]; time 0.25 h): −0.1%
- Relative variation of the maximum absorbance of the charge transfer bands ([2]; time 0.25 h): −0.3%
- Relative variation of the maximum absorbance of the π→π* transitions ([2]; time 0.5 h): −0.2%
- Relative variation of the maximum absorbance of the charge transfer bands ([2]; time 0.5 h): −0.6%
- Relative variation of the maximum absorbance of the π→π* transitions ([2]; time 0.75 h): 0.0%
- Relative variation of the maximum absorbance of the charge transfer bands ([2]; time 0.75 h): −0.7%
- Relative variation of the maximum absorbance of the π→π* transitions ([2]; time 1 h): −0.1%
- Relative variation of the maximum absorbance of the charge transfer bands ([2]; time 1 h): −0.9%
- Relative variation of the maximum absorbance of the π→π* transitions ([2]; time 2 h): 0.0%
- Relative variation of the maximum absorbance of the charge transfer bands ([2]; time 2 h): −0.7%
- Relative variation of the maximum absorbance of the π→π* transitions ([2]; time 3 h): 0.1%
- Relative variation of the maximum absorbance of the charge transfer bands ([2]; time 3 h): −0.6%
- Relative variation of the maximum absorbance of the π→π* transitions ([2]; time 4 h): 0.0%
- Relative variation of the maximum absorbance of the charge transfer bands ([2]; time 4 h): −0.6%
- Relative variation of the maximum absorbance of the π→π* transitions ([2]; time 5 h): 0.1%
- Relative variation of the maximum absorbance of the charge transfer bands ([2]; time 5 h): −0.6%
- Relative variation of the maximum absorbance of the π→π* transitions ([2]; time 6 h): 0.1%
- Relative variation of the maximum absorbance of the charge transfer bands ([2]; time 6 h): −0.5%
- Relative variation of the maximum absorbance of the π→π* transitions ([2]; time 24 h): 6.0%
- Relative variation of the maximum absorbance of the charge transfer bands ([2]; time 24 h): −0.9%
- IC50 range in words ([3]; Example 24): sub-micromolar range
- IC50 ([3]; read-out: Cytotoxic activity expressed as IC50, Table 5, 48 h, 37° C.): 560 nM
